Each compound was assayed against T1, hP2X4 (human purinergic P2X receptor subtype 4) (Homo sapiens, UniProt Q99571). Settings: P2X4 IC50 (nM), HEK293 cells stably expressing hP2X4; agonist BZ-ATP 2.5 μM; FLIPR calcium.
T1 sequence (Q99571 1-404 isoform Q99571-2): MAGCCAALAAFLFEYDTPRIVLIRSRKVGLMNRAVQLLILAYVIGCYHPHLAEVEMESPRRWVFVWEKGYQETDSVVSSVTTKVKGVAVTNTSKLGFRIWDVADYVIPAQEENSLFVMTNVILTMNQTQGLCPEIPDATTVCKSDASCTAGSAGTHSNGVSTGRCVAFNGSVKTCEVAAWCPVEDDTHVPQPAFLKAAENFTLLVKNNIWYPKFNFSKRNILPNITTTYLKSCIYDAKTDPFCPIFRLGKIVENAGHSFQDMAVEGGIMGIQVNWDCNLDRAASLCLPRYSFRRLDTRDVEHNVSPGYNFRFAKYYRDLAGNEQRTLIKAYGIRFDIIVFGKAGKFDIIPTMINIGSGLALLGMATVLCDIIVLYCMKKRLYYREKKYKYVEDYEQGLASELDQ
NS(=O)(=O)c1cc(NC(=O)Cc2ccccc2Cl)cc2c(OC(F)F)nccc12 [Compound 28, 2-(2-chlorophenyl)-N-(1-(difluoromethoxy)-5-sulfamoylisoquinolin-7-yl)acetamide] showed an IC50 of less than 10 nM.
Compound CC(C)OC(=O)N1CCc2c(cc(NC(=O)Cc3ccccc3Cl)cc2S(N)(=O)=O)C1 [Compound 100, isopropyl-7-(2-(2-chlorophenyl)acetamido)-5-sulfamoyl-3,4-dihydroisoquinoline-2(1H)-carboxylate] has an IC50 of 10 to 50 nM.
Compound NS(=O)(=O)c1cc(NC(=O)Cc2ccccc2Cl)cc2cnc(N3CCCCC3)cc12 [Compound 77, 2-(2-chlorophenyl)-N-(3-(piperidin-1-yl)-5-sulfamoylisoquinolin-7-yl)acetamide] has an IC50 of 50 to 200 nM.
Compound CN1CCN(c2cc3c(S(N)(=O)=O)cc(NC(=O)Cc4ccccc4Cl)cc3cn2)CC1 [Compound 79, 2-(2-chlorophenyl)-N-(3-(4-methylpiperazin-1-yl)-5-sulfamoylisoquinolin-7-yl)acetamide] has an IC50 of 50 to 200 nM.
In the case of COC(=O)N1CCc2c(cc(NC(=O)Cc3ccccc3Cl)cc2S(N)(=O)=O)C1 [Compound 99, methyl 7-(2-(2-chlorophenyl)acetamido)-5-sulfamoyl-3,4-dihydroisoquinoline-2(1H)-carboxylate], the IC50 is reported as 10 to 50 nM.
NS(=O)(=O)c1cc(NC(=O)Cc2ccccc2Cl)cc2cccnc12 [Compound 37, 2-(2-chlorophenyl)-N-(8-sulfamoylquinolin-6-yl)acetamide] showed an IC50 of 10 to 50 nM.
NS(=O)(=O)c1cc(NC(=O)Cc2ccccc2Cl)cc2c(Cl)cncc12 [Compound 48, N-(4-chloro-8-sulfamoylisoquinolin-6-yl)-2-(2-chlorophenyl)acetamide] showed an IC50 of 200 to 5000 nM.
Compound CN1CCN(c2ccc3c(S(N)(=O)=O)cc(NC(=O)Cc4ccccc4Cl)cc3n2)CC1=O [Compound 70, 2-(2-chlorophenyl)-N-(2-(4-methyl-3-carbonylpiperazin-1-yl)-5-sulfamoylquinolin-7-yl)acetamide] has an IC50 of 50 to 200 nM.
Compound COc1nccc2c(S(N)(=O)=O)cc(NC(=O)Cc3c(F)cccc3Cl)cc12 [Compound 26, 2-(2-chloro-6-fluorophenyl)-N-(1-methoxy-5-sulfamoylisoquinolin-7-yl)acetamide] has an IC50 of less than 10 nM.
Compound COc1nccc2c(S(N)(=O)=O)cc(NC(=O)Cc3ccccc3C#N)cc12 [Compound 64, 2-(2-cyanophenyl)-N-(1-methoxy-5-sulfamoylisoquinolin-7-yl)acetamide] has an IC50 of 200 to 5000 nM.
Compound NS(=O)(=O)c1cc(NC(=O)Cc2ccccc2Cl)cc2ccc(F)nc12 [Compound 38, 2-(2-chlorophenyl)-N-(2-fluoro-8-sulfamoylquinolin-6-yl)acetamide] has an IC50 of 50 to 200 nM.
NS(=O)(=O)c1cc(NC(=O)Cc2ccccc2Cl)cc2cnc(C3CC3)cc12 [Compound 21, 2-(2-chlorophenyl)-N-(3-cyclopropyl-5-sulfamoylisoquinolin-7-yl)acetamide] was tested, and the IC50 was less than 10 nM.
Nc1ncc2c(S(N)(=O)=O)cc(NC(=O)Cc3ccccc3Cl)cc2n1 [Compound 39, N-(2-amino-5-sulfamoylquinazolin-7-yl)-2-(2-chlorophenyl)acetamide] gave an IC50 of 200 to 5000 nM.
With NS(=O)(=O)c1cc(NC(=O)Cc2ccccc2Cl)cc2nc(OCCO)ccc12 [Compound 66, 2-(2-chlorophenyl)-N-(2-(2-hydroxyethoxy)-5-sulfamoylquinolin-7-yl)acetamide] the IC50 was 50 to 200 nM.
Compound COc1nccc2c(S(N)(=O)=O)cc(NC(=O)Cc3cccc(F)c3Cl)cc12 [Compound 97, 2-(2-chloro-3-fluorophenyl)-N-(1-methoxy-5-sulfamoylisoquinolin-7-yl)acetamide] has an IC50 of 50 to 200 nM.
Compound C#Cc1ccc2c(S(N)(=O)=O)cc(NC(=O)Cc3ccccc3Cl)cc2n1 [Compound 86, 2-(2-chlorophenyl)-N-(2-ethynyl-5-sulfamoylquinolin-7-yl)acetamide] has an IC50 of 200 to 5000 nM.
Work on CN1CCc2c(cc(NC(=O)Cc3ccccc3Cl)cc2S(N)(=O)=O)C1 [Compound 112, 2-(2-chlorophenyl)-N-(2-methyl-5-sulfamoyl-1,2,3,4-tetrahydroisoquinolin-7-yl)acetamide] yielded an IC50 of 10 to 50 nM.
Work on COc1cc2c(S(N)(=O)=O)cc(NC(=O)Cc3ccccc3Cl)cc2cn1 [Compound 75, 2-(2-chlorophenyl)-N-(3-methoxy-5-sulfamoylisoquinolin-7-yl)acetamide] yielded an IC50 of 50 to 200 nM.
With N#Cc1nccc2c(S(N)(=O)=O)cc(NC(=O)Cc3ccccc3Cl)cc12 [Compound 90] the IC50 was 50 to 200 nM.
NS(=O)(=O)c1cc(NC(=O)Cc2ccccc2Cl)cc2cnc(N3CCOCC3)cc12 [Compound 78, 2-(2-chlorophenyl)-N-(3-morpholino-5-sulfamoylisoquinolin-7-yl)acetamide] was tested, and the IC50 was 50 to 200 nM.
Work on NS(=O)(=O)c1cc(NC(=O)Cc2ccccc2Cl)cc2c1CCN(C(=O)c1ccccc1)C2 [Compound 106, N-(2-benzoyl-5-sulfamoyl-1,2,3,4-tetrahydroisoquinolin-7-yl)-2-(2-chlorophenyl)acetamide] yielded an IC50 of 10 to 50 nM.
With COc1nccc2c(S(C)(=N)=O)cc(NC(=O)Cc3ccccc3Cl)cc12 (centres unmarked) [Compound 53, 2-(2-chlorophenyl)-N-(1-methoxy-5-(S-methylsulfonimidoyl)isoquinolin-7-yl)acetamide] the IC50 was 200 to 5000 nM.
CC(C)Nc1cc2c(S(N)(=O)=O)cc(NC(=O)Cc3ccccc3Cl)cc2cn1 [Compound 83, 2-(2-chlorophenyl)-N-(3-(isopropylamino)-5-sulfamoylisoquinolin-7-yl)acetamide] showed an IC50 of 50 to 200 nM.
Work on NS(=O)(=O)c1cc(NC(=O)Cc2ccccc2Cl)cc2c(C(F)(F)F)nccc12 [Compound 29, 2-(2-chlorophenyl)-N-(-5-sulfamoyl-1-(trifluoromethyl)isoquinolin-7-yl)acetamide] yielded an IC50 of 10 to 50 nM.
COc1nccc2c(S(N)(=O)=O)cc(NC(=O)Cc3c(Cl)ccc(F)c3O)cc12 [Compound 63, 2-(6-chloro-3-fluoro-2-hydroxyphenyl)-N-(1-methoxy-5-sulfamoylisoquinolin-7-yl)acetamide] showed an IC50 of 200 to 5000 nM.
For COc1nccc2c(S(N)(=O)=O)cc(NC(=O)Cc3c(O)cccc3Cl)cc12 [Compound 62, 2-(2-chloro-6-hydroxyphenyl)-N-(1-methoxy-5-sulfamoylisoquinolin-7-yl)acetamide], the IC50 was 200 to 5000 nM.
C=CC(F)(F)N1CCc2c(cc(NC(=O)Cc3ccccc3Cl)cc2S(N)(=O)=O)C1 [Compound 119, 2-(2-chlorophenyl)-N-(2-(1,1-difluoroallyl)-5-sulfamoyl-1,2,3,4-tetrahydroisoquinolin-7-yl)acetamide] showed an IC50 of 200 to 5000 nM.
Work on COc1ccc2c(S(N)(=O)=O)cc(NC(=O)Cc3ccccc3Cl)cc2n1 [Compound 65, 2-(2-chlorophenyl)-N-(2-methoxy-5-sulfamoylquinolin-7-yl)acetamide] yielded an IC50 of 10 to 50 nM.
With NS(=O)(=O)c1cc(NC(=O)Cc2ccccc2Cl)cc2ccncc12 [Compound 45, 2-(2-chlorophenyl)-N-(8-sulfamoylisoquinolin-6-yl)acetamide] the IC50 was 50 to 200 nM.
Compound NS(=O)(=O)c1cc(NC(=O)Cc2ccccc2Cl)cc2c(F)cncc12 [Compound 47, 2-(2-chlorophenyl)-N-(4-fluoro-8-sulfamoylisoquinolin-6-yl)acetamide] has an IC50 of 50 to 200 nM.
For NS(=O)(=O)c1cc(NC(=O)Cc2ccccc2Cl)cc2c1CCNC2 [Compound 98, 2-(2-chlorophenyl)-N-(5-sulfamoyl-1,2,3,4-tetrahydroisoquinolin-7-yl)acetamide], the IC50 was 200 to 5000 nM.
Compound NS(=O)(=O)c1cc(NC(=O)Cc2ccccc2Cl)cc2c(OCc3ccc(F)cc3)nccc12 [Compound 32, 2-(2-chlorophenyl)-N-(1-((4-fluorobenzyl)oxo)-5-sulfamoylisoquinolin-7-yl)acetamide] has an IC50 of 10 to 50 nM.
NS(=O)(=O)c1cc(NC(=O)Cc2ccccc2Cl)cc2c(CF)nccc12 [Compound 56] was tested, and the IC50 was 50 to 200 nM.
In the case of COc1nccc2c(S(N)(=O)=O)cc(NC(=O)Cc3ccccc3OC(F)(F)F)cc12 [Compound 96, N-(1-methoxy-5-sulfamoylisoquinolin-7-yl)-2-(2-(trifluoromethoxy)phenyl)acetamide], the IC50 is reported as 200 to 5000 nM.
NS(=O)(=O)c1cc(NC(=O)Cc2ccccc2Cl)cc2c1CCN(c1ccc(C(F)(F)F)cn1)C2 [Compound 117, 2-(2-chlorophenyl)-N-(5-sulfamoyl-2-(5-(trifluoromethyl)pyridin-2-yl)-1,2,3,4-tetrahydroisoquinolin-7-yl)acetamide] was tested, and the IC50 was 10 to 50 nM.
COc1nccc2c(S(N)(=O)=O)cc(NC(=O)Cc3ccc(F)cc3Cl)cc12 [Compound 94, 2-(2-chloro-4-fluorophenyl)-N-(1-methoxy-5-sulfamoylisoquinolin-7-yl)acetamide] gave an IC50 of 50 to 200 nM.
N#Cc1nccc2c(S(N)(=O)=O)cc(NC(=O)Cc3ccccc3Cl)cc12 [Compound 44, 2-(2-chlorophenyl)-N-(1-cyano-5-sulfamoylisoquinolin-7-yl)acetamide] gave an IC50 of 200 to 5000 nM.
NS(=O)(=O)c1cc(NC(=O)Cc2ccccc2Cl)cc2nc(N3CCOCC3)ccc12 [Compound 68, 2-(2-chlorophenyl)-N-(2-morpholino-5-sulfamoylquinolin-7-yl)acetamide] showed an IC50 of 50 to 200 nM.
For Nc1nccc2c(S(N)(=O)=O)cc(NC(=O)Cc3ccccc3Cl)cc12 [Compound 51, N-(1-amino-5-sulfamoylisoquinolin-7-yl)-2-(2-chlorophenyl)acetamide], the IC50 was 200 to 5000 nM.
CC(C)CCOc1nccc2c(S(N)(=O)=O)cc(NC(=O)Cc3ccccc3Cl)cc12 [Compound 15, 2-(2-chlorophenyl)-N-(1-(isopentyloxy)-5-sulfamoylisoquinolin-7-yl)acetamide] showed an IC50 of 50 to 200 nM.
NS(=O)(=O)c1cc(NC(=O)Cc2ccccc2Cl)cc2cnccc12 [Compound 6] showed an IC50 of 10 to 50 nM.

Source: US12692235B2, “Fused ring compound and application thereof” (WUHAN LL SCIENCE AND TECHNOLOGY DEVELOPMENT CO., LTD., priority 2019, dated 2026)
